# Values quoted from earlier work, collected in PMC10126514, “The interaction of peptide inhibitors and Aβ protein: Binding mode analysis, inhibition of the formation of Aβ aggregates, and then exert neuroprotective effects” (Frontiers in Aging Neuroscience, 2023).
# Details: ref Wang et al., 2019, Behl et al., 2020, Tolar et al.; cited from earlier work
smiles,measurement,value
CCN(C)C(=O)Oc1cccc([C@H](C)N(C)C)c1 [rivastigmine],Potential side effects,"Diarrhea, vomiting, nausea, and abdominal cramps"
